{
  "source": "patent US20220175809A1",
  "about": "“TREATMENT AND PREVENTION OF INFECTIONS BY HERPESVIRIDAE WITH DELPHINIDIN-3-GLUCOSIDE” (Evonik Operations GmbH, priority 2019, published 2022)",
  "key": {"HSV-1": {"tested_on": "HSV-1", "test": "Anti-viral assay, GFP-encoding HSV-1 infection of BHK cells (infected cells counted)", "assay_type": "cell-based, herpes simplex virus 1", "conditions": "BHK cells treated with anthocyanins, then GFP-encoding HSV-1", "protocol": "(§1) BHK cells were incubated with decreasing concentration of the solubilized test compounds for approx. 1 h. All concentrations were analyzed by six independent replicates on a black 96 well plate (PerkinElmer). Cells were infected with GFP-encoding wildtype HSV-1 virus and incubated for two days. Two days after infection, HSV-1-infected cells and GFP expressing cells were directly counted using the PerkinElmer Ensight system with optical cell culture plates. The instrument was controlled by manual counting. Anti-viral assays for HHV8 were performed accordingly. To not only analyze the virus entry and early phase of virus replication of infection but also later phases of viral replication, the test assay was adjusted accordingly. BHK cells were incubated with test compounds and subsequently infected with HSV-1. Two days after infection supernatants were collected, centrifuged to remove detached cells and used to infect BHK cells. After two additional days infected cells were quantified using the Ensight system.\nThe cells were subsequently infected with GFP-encoding HSV at a multiplicity of infection of 2.5, and infected GFP-expressing cells were counted one day after infection using the PerkinElmer Ensight system. […] Thus, the sugar is not required as potential co-factor for drug uptake."}, "HHV-8": {"tested_on": "HHV-8", "test": "Anti-viral assay, GFP-encoding HHV-8 infection (infected cells counted)", "assay_type": "cell-based, Herpes virus 8", "conditions": "materials adjusted to same anthocyanin levels, counted two days after infection", "protocol": "as §1\nThe concentrations of materials were again adjusted to the same levels of anthocyanins. No treatment or only maltodextrin served as controls. The cells were subsequently infected with GFP-encoding HHV-8, and infected GFP-expressing cells were counted two days after infection using the PerkinElmer Ensight system. […] The analysis of berry extract analogue without maltodextrin and the maltodextrin control confirmed again that the sugar moiety is not required as potential co-factor for drug uptake."}},
  "data": [
    {"compound": "OC[C@H]1OC(Oc2cc3c(O)cc(O)cc3[o+]c2-c2cc(O)c(O)c(O)c2)[C@H](O)C(O)C1O", "note": "(stereo partly shown) [D3G, Delphinidin-3-glucoside]", "values": [
      {"measurement": "inhibition of HSV-1 (viral infectivity)", "setting": "HSV-1", "result": "decreased viral infectivity like Healthberry® 865"},
      {"measurement": "suppression of HHV-8 viral infectivity", "setting": "HHV-8", "result": "identified as an active ingredient"},
      {"measurement": "suppression of HHV-8 viral infectivity", "setting": "HHV-8; listed as D3G derived from red grape extract", "result": "reduced the number of infected cells significantly"},
      {"measurement": "suppression of HHV-8 viral infectivity", "setting": "HHV-8; listed as D3G from Healthberry® 865", "result": "reduced the number of infected cells significantly"}
    ]}
  ]
}
